The assay addresses T1, human histamine H3 receptor (Homo sapiens, UniProt Q9Y5N1).
T1 construct: expressed in transfected cells; host or cells: CHO K1 cells carrying pSwitch, transfected with pGeneH3 and induced with mifepristone; membranes of clone 3H3
Kind of assay: Histamine H3 functional antagonist assay. Format: biochemical. As to the method: A membrane preparation containing histamine H3 receptors may be prepared in accordance with the following procedures:
Ligated DNA was transformed into competent DH5α E. coli host bacterial cells and plated onto Luria Broth (LB) agar containing Zeocin™ (an antibiotic which allows the selection of cells expressing the sh ble gene which is present on pGene and pSwitch) at 50 μg ml^−1. Colonies containing the re-ligated plasmid were identified by restriction analysis. DNA for transfection into mammalian cells was prepared from 250 ml cultures of the host bacterium containing the pGeneH3 plasmid and isolated using a DNA preparation kit (Qiagen Midi-Prep) as per manufacturers guidelines (Qiagen).
CHO K1 cells previously transfected with the pSwitch regulatory plasmid (InVitrogen) were seeded at 2×10e6 cells per T75 flask in Complete Medium, containing Hams F12 (GIBCOBRL, Life Technologies) medium supplemented with 10% v/v dialysed foetal bovine serum, L-glutamine, and hygromycin (100 μg ml^−1), 24 hours prior to use. Plasmid DNA was transfected into the cells using Lipofectamine plus according to the manufacturers guidelines (InVitrogen). 48 hours post transfection cells were placed into complete medium supplemented with 500 μg ml^−1 Zeocin™.
10-14 days post selection 10 nM Mifepristone (InVitrogen), was added to the culture medium to induce the expression of the receptor. […] Approximately 1×10e7 cells were examined for receptor expression by staining with a rabbit polyclonal antibody, 4a, raised against the N-terminal domain of the histamine H3 receptor, incubated on ice for 60 minutes, followed by two washes in sorting medium. […] Following two further washes with Sorting Medium, cells were filtered through a 50 μm Filcon™ (BD Biosciences) and then analysed on a FACS Vantage SE Flow Cytometer fitted with an Automatic Cell Deposition Unit. […] Positively stained cells were sorted as single cells into 96-well plates, containing Complete Medium containing 500 μg ml^−1 Zeocin™ and allowed to expand before reanalysis for receptor expression via antibody and ligand binding studies.
All steps of the protocol are carried out at 4° C. and with pre-cooled reagents. […] The cells are then homogenised by 2×15 second bursts in a 1 litre glass Waring blender, followed by centrifugation at 500 g for 20 minutes. The supernatant is then spun at 48,000 g for 30 minutes. […]
The plate is then incubated on a shaker at room temperature for 30 minutes followed by centrifugation for 5 minutes at 1500 rpm. The plate is read between 3 and 6 hours after completion of centrifuge run in a Wallac Microbeta counter on a 1 minute normalised tritium count protocol. Data is analysed using a 4-parameter logistic equation. […]

Where [1] appears, read: membranes of CHO K1 cells expressing human histamine H3, [35S]GTPγS SPA, histamine 0.3 μM, read-out: antagonism (pKb) (converted).

This note sets out measurements from patent US7704994B2, “Benzazepine derivatives for the treatment of neurological disorders” (Glaxo Group Limited, priority 2002, dated 2010).

Each structure is given as a SMILES string. Values joined by “and” are separate entries in the source; they are usually repeats but may differ in a detail not shown here. Equal values may be shown once. Read-outs that look alike come from different tables or passages of the source.

T1 sequence (Q9Y5N1 whole entry): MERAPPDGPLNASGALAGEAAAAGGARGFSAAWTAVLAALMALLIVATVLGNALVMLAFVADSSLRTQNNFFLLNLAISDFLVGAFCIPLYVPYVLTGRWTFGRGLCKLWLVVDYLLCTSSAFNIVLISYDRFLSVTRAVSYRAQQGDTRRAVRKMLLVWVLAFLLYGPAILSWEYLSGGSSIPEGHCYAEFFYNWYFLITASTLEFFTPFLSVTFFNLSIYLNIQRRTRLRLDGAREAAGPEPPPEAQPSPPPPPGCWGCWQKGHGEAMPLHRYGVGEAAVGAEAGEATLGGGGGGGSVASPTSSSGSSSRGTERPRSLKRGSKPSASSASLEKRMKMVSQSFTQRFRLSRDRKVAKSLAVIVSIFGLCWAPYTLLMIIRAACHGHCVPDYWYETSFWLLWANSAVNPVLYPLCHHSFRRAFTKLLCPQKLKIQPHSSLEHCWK

In turn, `c1ccc(COc2ccc3c(c2)CCN(C2CCC2)CC3)cc1` [Example 1, 7-Benzyloxy-3-cyclobutyl-2,3,4,5-tetrahydro-1H-benzo[d]azepine] registered a Kb of 31.6 to 1000 pM.

As for `CNC(=O)c1ccc(Oc2ccc3c(c2)CCN(C2CCC2)CC3)nc1` [Example 121, 6-(3-Cyclobutyl-2,3,4,5-tetrahydro-1H-benzo[d]azepin-7-yloxy)-N-methyl-nicotinamide], under setting [1], the Kb is 31.6 to 1000 pM and < 316 pM.

For `O=C1CCCN1c1ccc(Oc2ccc3c(c2)CCN(C2CCC2)CC3)nc1` [Example 217, 1-{6-[(3-Cyclobutyl-2,3,4,5-tetrahydro-1H-3-benzazepin-7-yl)oxy]-3-pyridinyl}-2-pyrrolidinone], the Kb under setting [1] was 31.6 to 1000 pM.

With `O=C(N1CCOCC1)N1CCC(Oc2ccc3c(c2)CCN(C2CCC2)CC3)CC1` [Example 52], the Kb under setting [1] is 31.6 to 1000 pM.
